From ChEMBL document CHEMBL1157539, “Thousands of chemical starting points for antimalarial lead identification” (Nature, 2010)

Test system: Plasmodium falciparum
Test: GSK_TCMDC: Inhibition of Plasmodium falciparum 3D7 in whole erythrocytes, using parasite LDH activity as an index of growth.
Type: functional, organism-based
Settings: Plasmodium falciparum, 3D7

| SMILES | XC50 |
| --- | --- |
| O=C(Nc1ccc(-c2ccccc2)s1)N[C@H]1CCN(Cc2ccc(OCCCN3CCCCC3)cc2)C1 | 742 nM |
| O=C(NCCCCN1CCC(c2ccc3ccccc3c2O)CC1)c1ccc(NC(=O)c2ccc(Cl)cc2)cc1 | 1010 nM |
| Nc1ccc(-c2ccc3ccnc(N)c3c2)cc1 | 682 nM |
| N#Cc1ccc2c(c1)CCN(CCC1CCC(NC(=O)c3cccc(-c4ccc(F)cc4)c3)CC1)CC2 (stereo unspecified) | 822 nM |
| Cc1cc(C(F)(F)F)nn1-c1ccc(NC(=O)c2ccco2)cc1 | 734 nM |
| CCc1ccc(NC(=O)N(CCCN2CCN(C)CC2)Cc2csc(-c3ccc(CNCc4ccccc4)cc3)n2)cc1 | 1010 nM |
